In PubChem BioAssay AID1259407 (Chemical Carcinogenesis Research Information System (CCRIS), 2018):
The source made the active and inactive calls. The rule behind the calls is not given here.

System: CCRIS mutagenicity, Ames/micronucleus/aberration tests
Assay: CCRIS mutagenicity studies
[1] = Test System: AMES SALMONELLA TYPHIMURIUM, Strain/Indicator: TA97, Metabolic Activation: HAMSTER, LIVER, S-9, AROCLOR 1254 (10 OR 30%), Method: PREINCUBATION
[2] = Test System: AMES SALMONELLA TYPHIMURIUM, Strain/Indicator: TA97, Metabolic Activation: NONE, Method: PREINCUBATION
[3] = Test System: AMES SALMONELLA TYPHIMURIUM, Strain/Indicator: TA97, Metabolic Activation: RAT, LIVER, S-9, AROCLOR 1254 (10 OR 30%), Method: PREINCUBATION
[4] = Test System: AMES SALMONELLA TYPHIMURIUM, Strain/Indicator: TA98, Metabolic Activation: HAMSTER, LIVER, S-9, AROCLOR 1254 (10 OR 30%), Method: PREINCUBATION
[5] = Test System: AMES SALMONELLA TYPHIMURIUM, Strain/Indicator: TA98, Metabolic Activation: NONE, Method: PREINCUBATION
[6] = Test System: AMES SALMONELLA TYPHIMURIUM, Strain/Indicator: TA98, Metabolic Activation: RAT, LIVER, S-9, AROCLOR 1254 (10 OR 30%), Method: PREINCUBATION
[7] = Test System: AMES SALMONELLA TYPHIMURIUM, Strain/Indicator: TA100, Metabolic Activation: HAMSTER, LIVER, S-9, AROCLOR 1254 (10 OR 30%), Method: PREINCUBATION
[8] = Test System: AMES SALMONELLA TYPHIMURIUM, Strain/Indicator: TA100, Metabolic Activation: NONE, Method: PREINCUBATION
[9] = Test System: AMES SALMONELLA TYPHIMURIUM, Strain/Indicator: TA100, Metabolic Activation: RAT, LIVER, S-9, AROCLOR 1254 (10 OR 30%), Method: PREINCUBATION
[10] = Test System: AMES SALMONELLA TYPHIMURIUM, Strain/Indicator: TA1535, Metabolic Activation: HAMSTER, LIVER, S-9, AROCLOR 1254 (10 OR 30%), Method: PREINCUBATION
[11] = Test System: AMES SALMONELLA TYPHIMURIUM, Strain/Indicator: TA1535, Metabolic Activation: NONE, Method: PREINCUBATION
[12] = Test System: AMES SALMONELLA TYPHIMURIUM, Strain/Indicator: TA1535, Metabolic Activation: RAT, LIVER, S-9, AROCLOR 1254 (10 OR 30%), Method: PREINCUBATION
[13] = Test System: AMES SALMONELLA TYPHIMURIUM, Strain/Indicator: TA100, Metabolic Activation: NONE, Method: STANDARD PLATE
[14] = Test System: AMES SALMONELLA TYPHIMURIUM, Strain/Indicator: TA1535, Metabolic Activation: NONE, Method: STANDARD PLATE
[15] = Test System: AMES SALMONELLA TYPHIMURIUM, Strain/Indicator: TA1537, Metabolic Activation: NONE, Method: STANDARD PLATE
[16] = Test System: AMES SALMONELLA TYPHIMURIUM, Strain/Indicator: TA98, Metabolic Activation: NONE, Method: STANDARD PLATE
[17] = Test System: AMES SALMONELLA TYPHIMURIUM, Strain/Indicator: TA98, Metabolic Activation: RAT, LIVER, S-9, AROCLOR 1254, Method: STANDARD PLATE
[18] = Test System: AMES SALMONELLA TYPHIMURIUM, Strain/Indicator: TA100, Metabolic Activation: RAT, LIVER, S-9, AROCLOR 1254, Method: STANDARD PLATE
[19] = Test System: AMES SALMONELLA TYPHIMURIUM, Strain/Indicator: TA1535, Metabolic Activation: RAT, LIVER, S-9, AROCLOR 1254, Method: STANDARD PLATE
[20] = Test System: AMES SALMONELLA TYPHIMURIUM, Strain/Indicator: TA1537, Metabolic Activation: RAT, LIVER, S-9, AROCLOR 1254, Method: STANDARD PLATE
[21] = Test System: AMES SALMONELLA TYPHIMURIUM, Strain/Indicator: TA1538, Metabolic Activation: NONE, Method: STANDARD PLATE
[22] = Test System: AMES SALMONELLA TYPHIMURIUM, Strain/Indicator: TA1538, Metabolic Activation: RAT, LIVER, S-9, AROCLOR 1254, Method: STANDARD PLATE

COC(=O)C(Cl)CCC(Cl)CCCCCC(Cl)CCC(Cl)CCCCCl (centres undefined)
mutagenic call [1]: inactive; negative
mutagenic call [2]: inactive; negative
mutagenic call [3]: inactive; negative
mutagenic call [4]: inactive; negative
mutagenic call [5]: inactive; negative
mutagenic call [6]: inactive; negative
mutagenic call [7]: inactive; negative
mutagenic call [8]: inactive; negative
mutagenic call [9]: inactive; negative
mutagenic call [10]: inactive; negative
mutagenic call [11]: inactive; negative
mutagenic call [12]: inactive; negative

O=[N+]([O-])O.O=[N+]([O-])O.[O]=[U]=[O]
mutagenic call (End Point: In vitro micronucleus, Test System: Rat kidney (NRK-52E) cells, Metabolic Activation: None): inactive; negative; depleted uranium tested

C(COCC1CO1)OCC1CO1 (centres undefined)
mutagenic call [13]: active; positive
mutagenic call [14]: active; positive

CN(C)CCNC(=O)c1cccc2oc(-c3ccccc3)nc12
mutagenic call [15]: inactive; negative

CC(=O)N(CC(O)CN(C(C)=O)c1c(I)c(C(=O)NCC(O)CO)c(I)c(C(=O)NCC(O)CO)c1I)c1c(I)c(C(=O)NCC(O)CO)c(I)c(C(=O)NCC(O)CO)c1I (centres undefined)
mutagenic call [16]: inactive; negative
mutagenic call [17]: inactive; negative
mutagenic call [13]: inactive; negative
mutagenic call [18]: inactive; negative
mutagenic call [14]: inactive; negative
mutagenic call [19]: inactive; negative
mutagenic call [15]: inactive; negative
mutagenic call [20]: inactive; negative
mutagenic call [21]: inactive; negative
mutagenic call [22]: inactive; negative
mutagenic call (Test System: E. COLI, Strain/Indicator: WP2 UVRA, Metabolic Activation: NONE, Method: STANDARD PLATE): inactive; negative
mutagenic call (Test System: E. COLI, Strain/Indicator: WP2 UVRA, Metabolic Activation: RAT, LIVER, S-9, AROCLOR 1254, Method: STANDARD PLATE): inactive; negative

c1ccc(Cc2ccc(OCC3CO3)cc2)cc1 (centres undefined)
mutagenic call [13]: active; positive
mutagenic call [14]: active; positive

O=[N+]([O-])C1CCCCC1
mutagenic call (Test System: UDS RAT HEPATOCYTES, Strain/Indicator: THY INCORP, Metabolic Activation: NONE): active; positive

C1COCO1
mutagenic call [16]: inactive; negative
mutagenic call [17]: inactive; negative
mutagenic call [13]: inactive; negative
mutagenic call [18]: inactive; negative
mutagenic call [14]: inactive; negative
mutagenic call [19]: inactive; negative
mutagenic call [15]: inactive; negative
mutagenic call [20]: inactive; negative
mutagenic call [21]: inactive; negative
mutagenic call [22]: inactive; negative

NC1CCCCC1
mutagenic call (Test System: CHINESE HAMSTER OVARY, Strain/Indicator: CHO-K1-BH4 (HGPRT), Metabolic Activation: NONE, Method: STANDARD PLATE): inactive; negative
mutagenic call (Test System: CHINESE HAMSTER OVARY, Strain/Indicator: CHO-K1-BH4 (HGPRT), Metabolic Activation: RAT, LIVER, S-9, Method: STANDARD PLATE): inactive; negative
mutagenic call (Test System: UDS RODENT HEPATOCYTES, Strain/Indicator: THY INCORP (NON-S-PHASE), Metabolic Activation: NONE, Method: AUTORADIOGRAPHY): inactive; negative

CSc1cc(SC)c(N)c(C)c1N
mutagenic call [17]: active; positive

c1ccc(N(c2ccccc2)c2ccccc2)cc1
mutagenic call [1]: inactive; negative
mutagenic call [2]: inactive; negative
mutagenic call [3]: inactive; negative
mutagenic call (Test System: AMES SALMONELLA TYPHIMURIUM, Strain/Indicator: TA98, Metabolic Activation: HAMSTER, LIVER, S-9, AROCLOR 1254 (10%), Method: PREINCUBATION): inactive; negative
mutagenic call [4]: inactive; negative
mutagenic call [5]: inactive; negative
mutagenic call (Test System: AMES SALMONELLA TYPHIMURIUM, Strain/Indicator: TA98, Metabolic Activation: RAT, LIVER, S-9, AROCLOR 1254 (10%), Method: PREINCUBATION): inactive; negative
mutagenic call [6]: inactive; negative
mutagenic call (Test System: AMES SALMONELLA TYPHIMURIUM, Strain/Indicator: TA100, Metabolic Activation: HAMSTER, LIVER, S-9, AROCLOR 1254 (10%), Method: PREINCUBATION): inactive; negative
mutagenic call [7]: inactive; negative
mutagenic call [8]: inactive; negative
mutagenic call (Test System: AMES SALMONELLA TYPHIMURIUM, Strain/Indicator: TA100, Metabolic Activation: RAT, LIVER, S-9, AROCLOR 1254 (10%), Method: PREINCUBATION): inactive; negative
mutagenic call [9]: inactive; negative
mutagenic call (Test System: AMES SALMONELLA TYPHIMURIUM, Strain/Indicator: TA1535, Metabolic Activation: HAMSTER, LIVER, S-9, AROCLOR 1254 (10%), Method: PREINCUBATION): inactive; negative
mutagenic call [10]: inactive; negative
mutagenic call [11]: inactive; negative
mutagenic call (Test System: AMES SALMONELLA TYPHIMURIUM, Strain/Indicator: TA1535, Metabolic Activation: RAT, LIVER, S-9, AROCLOR 1254 (10%), Method: PREINCUBATION): inactive; negative
mutagenic call [12]: inactive; negative
mutagenic call (Test System: AMES SALMONELLA TYPHIMURIUM, Strain/Indicator: TA1537, Metabolic Activation: HAMSTER, LIVER, S-9, AROCLOR 1254 (10%), Method: PREINCUBATION): inactive; negative
mutagenic call (Test System: AMES SALMONELLA TYPHIMURIUM, Strain/Indicator: TA1537, Metabolic Activation: HAMSTER, LIVER, S-9, AROCLOR 1254 (10 OR 30%), Method: PREINCUBATION): inactive; negative
mutagenic call (Test System: AMES SALMONELLA TYPHIMURIUM, Strain/Indicator: TA1537, Metabolic Activation: NONE, Method: PREINCUBATION): inactive; negative
mutagenic call (Test System: AMES SALMONELLA TYPHIMURIUM, Strain/Indicator: TA1537, Metabolic Activation: RAT, LIVER, S-9, AROCLOR 1254 (10%), Method: PREINCUBATION): inactive; negative
mutagenic call (Test System: AMES SALMONELLA TYPHIMURIUM, Strain/Indicator: TA1537, Metabolic Activation: RAT, LIVER, S-9, AROCLOR 1254 (10 OR 30%), Method: PREINCUBATION): inactive; negative

ClCc1ccccc1CCl
mutagenic call [16]: inactive; negative
